Consider 62 compounds from a melting point compilation (Tetko et al.; mined from patent text by program, amines drawn as free bases though some values may be those of a salt).

By melting point is commonly meant the temperature of the solid-liquid transition. `CCCCCCCCCCC(O)CNC` (configuration not stated) came in with a melting point of 56 to 57 °C.

As to `Nc1nc2ccccc2c2c1nc(CN1CCOCC1)n2Cc1ccccc1`, the melting point is above 300 °C.

`O=C1CCC(N2Cc3c(OCc4ccc5ncc(CN6CCOCC6)n5c4)cccc3C2=O)C(=O)N1` (configuration not stated) displayed a melting point of 170 to 172 °C.

The compound `NS(=O)(=O)c1cccc(-c2noc(-c3cnn4c(C(F)(F)F)cc(-c5ccc(Cl)cc5)nc34)n2)c1` returned a melting point of 247 °C.

On to `COc1ccc(CC2C(=O)N(Cc3ccccc3)c3ccccc3NC2C)cc1` (configuration not stated), for which the melting point lay in the range of 136 to 137 °C.

The compound `COc1ccc(-c2ccc(C(=O)N3Cc4cccn4Cc4ccccc43)cc2)cc1` registered a melting point of 187 to 189 °C.

`CC(=O)OC1CCC2C3CCC4=CC(=O)CCC4(C)C3(Br)C(F)CC12C` (configuration not stated): the melting point lay in the range of 172 to 174 °C.

In turn, `CC(=O)N(N1C(=O)C(NC(=O)Nc2cccc(C)c2)CC(c2ccccc2)CC1c1ccccc1)C(C)(C)C` (single isomer, unassigned; (-)) had a melting point of 140 to 150 °C.

On to `O=C(Cc1ccc(Cl)cc1)OC(c1ccccc1)c1ccccc1`, for which the melting point lay within 107 to 108 °C.

`N[C@@H]1CCC(=O)N[C@@H]1c1cccc(OC(F)(F)F)c1` (relative stereo): the melting point lay in the range of 126 to 130 °C.

In turn, `CCCNC(=O)C(C)Cc1ccc2cccc(Cc3ccc(C(=O)OC)cc3OC)c2c1` (configuration not stated) returned a melting point of 130 °C.

`Cc1n[nH]c(C)c1Oc1cc(C#N)cc(C#N)c1` had a melting point of 182 to 185 °C.

With `c1ccc(C2=NOC3(CCNCC3)C2)cc1`, the melting point was 115 °C.

The compound `CCCn1nc2c(N)nc3ccccc3c2c1CC(C)(C)NC(C)=O` registered a melting point of 182 to 183 °C.

Regarding `CCOC(=O)C(=O)CC(=O)C(=CN(C)C)c1ccccc1`, the melting point was found to be 110 °C.

In turn, `CCN1CCN=C1c1ccccc1C(=O)c1ccc(Cl)cc1` yielded a melting point of 132 to 134 °C.

Consider `CCOCCn1cc(C2CCN(CCOc3ccc(C(=O)O)cc3)CC2)c2ccccc21`, for which the melting point was found to be 85 °C.

On to `Fc1ccc([C@@H]2CCN(Cc3ccccc3)C[C@H]2COc2ccc3c(c2)OCO3)cc1`, for which the melting point was 98 to 100 °C.

As for `O=C(O)[C@H](CCc1ccccc1)NS(=O)(=O)c1ccc2c(c1)Cc1ccccc1O2`, the melting point lay in the range of 138 to 142 °C.

For the compound `Cc1nnc2ccc(-c3cccs3)nn12`, the melting point fell in the range of 152 to 153 °C.

Compound `O=C(C1CCCCC1)C1CCN(C(=O)c2cc(O)c(O)cc2[N+](=O)[O-])CC1` displayed a melting point of 240 °C.

On to `CCCCCCCCCCCCS(=O)(=O)c1c(O)cc(C)oc1=O`, for which the melting point was 78 to 79 °C.

In turn, `COC(=O)c1[nH]c2c(C)ccc(C)c2c1S(C)=O` (configuration not stated) had a melting point of 127 °C.

Turning to `CCCc1nc(C)n2nc(S(=O)(=O)N(C)C)nc2c1Cc1ccc(-c2ccccc2C#N)cc1`, the melting point is 158 °C.

In turn, `NS(=O)(=O)c1ncccc1F` had a melting point of 124 to 125 °C.

In turn, `CCCCCc1ccc(-c2ccc(-c3cc(F)c(C(F)(F)Oc4cc(F)c(C(F)(F)F)c(F)c4)c(F)c3)c(F)c2)cc1` yielded a melting point of 96 °C.

Compound `O=C(O)CCc1ccc(C(=O)CN2CCN(c3ccncc3)CC2)cc1` had a melting point of 245 to 247 °C.

Compound `CCNSc1ccc([N+](=O)[O-])cc1C(Cl)(Cl)Cl` registered a melting point of 80 °C.

In the case of `NN1C=Nc2ccc(Cl)cc2C1(O)c1ccccc1Cl` (configuration not stated), the melting point came to 198 °C.

In turn, `COc1ccc(CN2Cc3cc(N(C)C)ccc3N3CC(=O)N=C23)cc1` displayed a melting point of 196 to 200 °C.

Regarding `N#CCCNC(=O)c1cccc(-c2cccc3nn(Cc4cc(F)cc(Cl)c4)cc23)c1`, the melting point fell in the range of 207 to 208 °C.

In turn, `CC(C)C1=C(C#N)C(c2ccccc2Cl)c2c[nH]nc2N1` (configuration not stated) displayed a melting point above 250 °C.

`O=C1NCCCN1c1cc(C(c2cc(F)ccc2F)S(=O)(=O)c2ccc(Cl)cc2)c(Cl)cn1` (configuration not stated) displayed a melting point above 230 °C.

With `CSCC(=O)[C@H](Cc1ccccc1)NC(=O)[C@H](CC(C)C)NC(C)=O`, the melting point lay within 118 to 120 °C.

`Cc1ccc(C(C)C)c(OCCN(C)Cc2c(C)c(O)c(C)c(C)c2OCCO)c1` showed a melting point of 115 to 118 °C.

`CCOC(=O)c1ccc(-c2[nH]nc3c2C(=O)c2c(NC(=O)NN4CCC[C@@H]4COC)cccc2-3)s1` registered a melting point of 221 to 222 °C.

`O=C1c2c(Cl)cccc2-n2cnc(-c3nc(C4CCC4)no3)c2[C@@H]2CCCN12` yielded a melting point of 183 to 185 °C.

For the compound `O=C(O)CC1C=CC=CC1=NOC(=O)C(Cl)Cl` (configuration not stated), the melting point amounted to 115 °C.

The compound `COC(=O)NNC(=O)Nc1ccccc1` had a melting point of 154 to 155 °C.

`COC(=O)C1CCCn2c(C(=O)c3ccc(F)cc3)ccc21` (configuration not stated) yielded a melting point of 78 to 79 °C.

As for `CCCc1cc(C(=O)OC)ccc1OCC(=O)CNc1cnn(C(C)C)c(=O)c1Cl`, the melting point is 133 °C.

Compound `CC(C)(C)OC(=O)NC(CO)c1ccc(F)cc1` (configuration not stated) showed a melting point of 85 to 86 °C.

In the case of `CCCc1nc2c(N)nc3cc(-c4ccc(F)cc4CN)ccc3c2s1`, the melting point was in the range of 181 to 184 °C.

On to `CCN(CC)C(=N)N[N+](=O)[O-]`, for which the melting point was in the range of 96 to 97 °C.

The compound `CC1c2cc(F)ccc2-c2ccc(F)cc2N1C(=O)c1ccc(O)cc1` (configuration not stated) came in with a melting point of 138 to 140 °C.

The compound `CCCCCC1CN(C(=O)c2cc(OC)c(OC)c(OC)c2)CCN1C(=O)c1cc(OC)c(OC)c(OC)c1` (configuration not stated) registered a melting point of 139 to 140 °C.

The compound `CN1CCN(C2=Nc3cc(C(F)(F)F)ccc3Nc3cscc32)CC1` gave a melting point of 202 °C.

Turning to `CC(C)(C)OC(=O)Nc1cc(Cl)c(-c2ccccc2)cc1N`, the melting point is 109 to 111 °C.

`COc1cc(N)c(Cl)cc1C(=O)NN1CCN(Cc2ccsc2)CC1` registered a melting point of 223 to 224 °C.

`Cc1ccc(-c2c(-c3ccc(S(C)(=O)=O)cc3)cnn(-c3ccc(F)cc3)c2=O)cc1F` came in with a melting point of 245 to 248 °C.

`N#Cc1cc(C(F)(F)F)[nH]c1-c1ccccc1Cl` came in with a melting point of 151 to 152 °C.

`COc1ccc(-c2csc3nc(C)c(CCN4CCC(c5noc6cc(F)ccc56)CC4)c(=O)n23)cc1` showed a melting point of 114 to 119 °C.

`CC(CCl)=NNC1=Nc2ccc(Cl)cc2C(c2ccccc2)=NC1` gave a melting point of 210 to 227 °C.

For the compound `CCCCC(Cc1ccc(OCCNC(=O)c2ccc(-c3cccc(OC)c3)cc2)cc1)C(=O)O` (configuration not stated), the melting point fell in the range of 107 to 109 °C.

With `CCc1cc(O)n(-c2ccccn2)n1`, the melting point was 189 °C.

Take `COc1cc(/C=C/C(=O)/C=C/C(=O)O)cc(OC)c1OC`: the melting point lay in the range of 152 to 154 °C.

`CC(C)C[C@@H](COCC(N)=O)NC(=O)OCc1ccccc1` showed a melting point of 78 to 79 °C.

In turn, `COc1cc(C2=C(C(C)(C)C)C(C)(C)CO2)cc2oc(-c3ccccc3)nc12` had a melting point of 68.5 to 69 °C.

Compound `Cn1c(C(=O)N2CCCC2)cc2cc(OCCNCC(O)COc3ccccc3)ccc21` (configuration not stated) registered a melting point of 130 °C.

`CCN(CC)CC1CN=C(N)O1` (configuration not stated) showed a melting point of 90 °C.

With `CC(C)(C)C1CC(CCC(=O)O)(CCC(=O)O)C(=O)C(CCC(=O)O)(CCC(=O)O)C1`, the melting point was in the range of 209 to 212 °C.

The compound `NCc1ccc(N2CCN(c3ccncc3)CC2)cc1` returned a melting point of 168 to 170 °C.
